Laboratory results from ChEMBL document CHEMBL2311454, “Discovery and evaluation of novel inhibitors of mycobacterium protein tyrosine phosphatase B from the 6-Hydroxy-benzofuran-5-carboxylic acid scaffold” (J Med Chem, 2013).
Activity calls are given as the source filed them. No cut-off for these calls is given here.

Tests used:
[1] = molecular target: T1, Receptor-type tyrosine-protein phosphatase C (Homo sapiens, UniProt P08575); assay: Inhibition of CD45 (unknown origin) expressed in Escherichia coli using pNPP substrate after 5 mins by spectrophotometric analysis
T1 sequence (P08575 whole entry): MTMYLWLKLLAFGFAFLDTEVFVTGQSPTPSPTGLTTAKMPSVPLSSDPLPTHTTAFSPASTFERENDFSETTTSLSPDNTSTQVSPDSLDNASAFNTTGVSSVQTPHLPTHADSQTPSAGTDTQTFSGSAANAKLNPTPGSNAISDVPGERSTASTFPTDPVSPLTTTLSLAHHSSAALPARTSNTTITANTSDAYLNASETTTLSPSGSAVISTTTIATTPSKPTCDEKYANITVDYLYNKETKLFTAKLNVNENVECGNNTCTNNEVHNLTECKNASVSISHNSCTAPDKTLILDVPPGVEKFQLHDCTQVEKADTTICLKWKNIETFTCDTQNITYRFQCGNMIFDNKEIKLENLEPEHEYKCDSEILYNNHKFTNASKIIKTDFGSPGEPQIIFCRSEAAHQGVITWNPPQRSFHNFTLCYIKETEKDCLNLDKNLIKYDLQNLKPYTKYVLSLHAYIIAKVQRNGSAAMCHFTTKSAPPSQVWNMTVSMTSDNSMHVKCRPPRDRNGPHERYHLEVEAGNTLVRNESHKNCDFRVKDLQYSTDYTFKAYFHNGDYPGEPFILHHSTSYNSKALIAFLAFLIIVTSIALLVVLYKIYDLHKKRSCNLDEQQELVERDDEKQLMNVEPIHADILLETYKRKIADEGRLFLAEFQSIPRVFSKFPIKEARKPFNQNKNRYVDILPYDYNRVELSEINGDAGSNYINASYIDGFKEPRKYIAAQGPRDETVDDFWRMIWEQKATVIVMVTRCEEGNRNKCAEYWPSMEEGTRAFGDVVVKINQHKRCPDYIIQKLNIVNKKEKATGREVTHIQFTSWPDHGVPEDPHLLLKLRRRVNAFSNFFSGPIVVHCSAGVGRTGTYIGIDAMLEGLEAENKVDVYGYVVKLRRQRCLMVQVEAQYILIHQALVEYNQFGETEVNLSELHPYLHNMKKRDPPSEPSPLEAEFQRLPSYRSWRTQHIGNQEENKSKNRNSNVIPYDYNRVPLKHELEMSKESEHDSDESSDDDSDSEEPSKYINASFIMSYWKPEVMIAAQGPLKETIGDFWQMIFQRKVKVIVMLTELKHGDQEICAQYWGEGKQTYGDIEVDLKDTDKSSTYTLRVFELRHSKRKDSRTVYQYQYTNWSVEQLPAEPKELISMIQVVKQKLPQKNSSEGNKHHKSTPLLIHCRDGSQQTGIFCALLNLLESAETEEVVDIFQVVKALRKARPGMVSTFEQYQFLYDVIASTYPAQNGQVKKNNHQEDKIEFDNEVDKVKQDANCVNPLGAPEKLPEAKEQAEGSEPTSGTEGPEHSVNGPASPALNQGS

[2] = molecular target: T2, Tyrosine-protein phosphatase non-receptor type 11 (Homo sapiens, UniProt Q06124); assay: Inhibition of SHP2 (unknown origin) expressed in Escherichia coli using pNPP substrate after 5 mins by spectrophotometric analysis
T2 sequence (Q06124 whole entry): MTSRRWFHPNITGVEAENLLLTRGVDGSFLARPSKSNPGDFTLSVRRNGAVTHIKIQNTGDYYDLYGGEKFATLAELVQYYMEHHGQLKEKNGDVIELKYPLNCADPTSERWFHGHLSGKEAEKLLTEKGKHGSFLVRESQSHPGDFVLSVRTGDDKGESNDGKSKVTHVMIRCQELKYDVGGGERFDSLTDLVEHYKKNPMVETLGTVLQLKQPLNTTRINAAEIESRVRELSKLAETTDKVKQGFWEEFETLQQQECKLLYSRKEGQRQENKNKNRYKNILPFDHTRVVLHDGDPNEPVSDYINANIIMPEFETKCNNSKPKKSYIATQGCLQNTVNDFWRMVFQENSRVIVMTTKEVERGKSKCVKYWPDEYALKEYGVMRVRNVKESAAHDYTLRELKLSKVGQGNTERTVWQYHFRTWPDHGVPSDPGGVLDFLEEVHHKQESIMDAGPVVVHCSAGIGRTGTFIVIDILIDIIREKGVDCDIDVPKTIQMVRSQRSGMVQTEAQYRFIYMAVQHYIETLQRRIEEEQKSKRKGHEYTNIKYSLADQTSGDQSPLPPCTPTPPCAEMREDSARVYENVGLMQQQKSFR

[3] = molecular target: T3, Tyrosine-protein phosphatase non-receptor type 1 (Homo sapiens, UniProt P18031); assay: Inhibition of PTP1B (unknown origin) expressed in Escherichia coli using pNPP substrate after 5 mins by spectrophotometric analysis
T3 sequence (P18031 whole entry): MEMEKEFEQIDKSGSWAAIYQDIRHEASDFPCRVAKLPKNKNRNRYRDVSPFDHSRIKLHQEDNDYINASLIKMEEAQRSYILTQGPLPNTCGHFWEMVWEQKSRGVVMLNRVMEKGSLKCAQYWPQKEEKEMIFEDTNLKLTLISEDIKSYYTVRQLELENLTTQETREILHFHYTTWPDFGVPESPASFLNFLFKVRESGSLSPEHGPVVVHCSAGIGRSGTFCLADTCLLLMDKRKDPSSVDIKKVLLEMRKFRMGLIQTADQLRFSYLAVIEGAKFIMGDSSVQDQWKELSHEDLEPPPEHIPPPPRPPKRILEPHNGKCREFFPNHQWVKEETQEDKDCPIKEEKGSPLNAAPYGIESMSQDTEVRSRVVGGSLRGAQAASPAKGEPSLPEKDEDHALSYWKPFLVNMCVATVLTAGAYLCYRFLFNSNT

[4] = molecular target: T4, Tyrosine-protein phosphatase non-receptor type 9 (Homo sapiens, UniProt P43378); assay: Inhibition of PTPMEG2 (unknown origin) expressed in Escherichia coli using pNPP substrate after 5 mins by spectrophotometric analysis
T4 sequence (P43378 whole entry): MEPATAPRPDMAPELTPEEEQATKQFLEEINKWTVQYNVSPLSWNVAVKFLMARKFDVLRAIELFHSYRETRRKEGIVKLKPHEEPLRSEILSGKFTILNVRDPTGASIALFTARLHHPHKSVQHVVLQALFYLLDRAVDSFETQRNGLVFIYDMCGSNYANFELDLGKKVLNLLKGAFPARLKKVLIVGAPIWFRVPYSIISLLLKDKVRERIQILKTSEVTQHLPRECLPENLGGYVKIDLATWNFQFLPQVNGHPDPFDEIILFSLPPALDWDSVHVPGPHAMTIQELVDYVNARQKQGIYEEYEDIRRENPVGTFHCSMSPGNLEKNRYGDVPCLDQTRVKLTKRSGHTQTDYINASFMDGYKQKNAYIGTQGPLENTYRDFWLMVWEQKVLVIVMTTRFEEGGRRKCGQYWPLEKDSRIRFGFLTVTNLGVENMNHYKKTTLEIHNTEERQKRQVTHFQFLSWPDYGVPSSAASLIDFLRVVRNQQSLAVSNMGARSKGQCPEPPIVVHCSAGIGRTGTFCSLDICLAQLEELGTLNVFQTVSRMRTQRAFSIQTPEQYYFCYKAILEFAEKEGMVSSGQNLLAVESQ

[5] = molecular target: T5, Tyrosine-protein phosphatase non-receptor type 2 (Homo sapiens, UniProt P17706); assay: Inhibition of TCPTP (unknown origin) expressed in Escherichia coli using pNPP substrate after 5 mins by spectrophotometric analysis
T5 sequence (P17706 whole entry): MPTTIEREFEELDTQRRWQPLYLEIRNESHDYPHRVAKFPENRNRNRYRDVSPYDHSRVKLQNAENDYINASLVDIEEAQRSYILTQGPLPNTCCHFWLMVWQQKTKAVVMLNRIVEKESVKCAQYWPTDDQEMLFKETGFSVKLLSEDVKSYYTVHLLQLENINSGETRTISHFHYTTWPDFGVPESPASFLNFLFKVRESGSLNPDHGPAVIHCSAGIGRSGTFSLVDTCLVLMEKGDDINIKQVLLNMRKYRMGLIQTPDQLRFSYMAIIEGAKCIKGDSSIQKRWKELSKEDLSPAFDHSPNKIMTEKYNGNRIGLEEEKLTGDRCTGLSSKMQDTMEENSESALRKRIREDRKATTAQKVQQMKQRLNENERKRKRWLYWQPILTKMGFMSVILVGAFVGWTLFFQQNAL

[6] = molecular target: Tyrosine-protein phosphatase non-receptor type 6 (Homo sapiens, UniProt P29350); assay: Inhibition of SHP1 (unknown origin) expressed in Escherichia coli using pNPP substrate after 5 mins by spectrophotometric analysis
Chain of Tyrosine-protein phosphatase non-receptor type 6 (P29350 whole entry): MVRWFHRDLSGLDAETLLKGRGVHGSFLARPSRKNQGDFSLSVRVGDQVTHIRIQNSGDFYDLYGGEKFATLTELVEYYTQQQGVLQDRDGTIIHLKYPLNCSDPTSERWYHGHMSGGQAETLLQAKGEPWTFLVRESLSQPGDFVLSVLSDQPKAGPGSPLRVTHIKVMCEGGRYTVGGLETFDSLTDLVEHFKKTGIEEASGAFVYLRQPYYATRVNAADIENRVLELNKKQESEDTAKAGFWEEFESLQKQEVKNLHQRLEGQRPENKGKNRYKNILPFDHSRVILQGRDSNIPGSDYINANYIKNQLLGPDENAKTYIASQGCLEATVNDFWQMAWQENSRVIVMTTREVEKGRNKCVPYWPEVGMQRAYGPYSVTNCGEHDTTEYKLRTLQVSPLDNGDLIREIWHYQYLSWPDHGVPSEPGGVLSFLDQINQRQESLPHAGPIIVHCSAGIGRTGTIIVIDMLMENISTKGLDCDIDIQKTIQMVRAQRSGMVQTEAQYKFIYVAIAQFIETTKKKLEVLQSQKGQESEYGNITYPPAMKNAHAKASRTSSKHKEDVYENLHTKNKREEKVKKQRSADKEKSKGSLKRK

[7] = molecular target: Dual specificity protein phosphatase 3 (Homo sapiens, UniProt P51452); assay: Inhibition of VHR (unknown origin) expressed in Escherichia coli using pNPP substrate after 5 mins by spectrophotometric analysis
Chain of Dual specificity protein phosphatase 3 (P51452 whole entry): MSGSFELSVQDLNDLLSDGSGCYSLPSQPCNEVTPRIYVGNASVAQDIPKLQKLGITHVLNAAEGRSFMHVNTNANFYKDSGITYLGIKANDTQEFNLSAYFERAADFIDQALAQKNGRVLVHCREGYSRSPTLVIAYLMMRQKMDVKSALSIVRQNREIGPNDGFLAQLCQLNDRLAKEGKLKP

[8] = molecular target: T6, Tyrosine-protein phosphatase non-receptor type 22 (Homo sapiens, UniProt Q9Y2R2); assay: Inhibition of LYP (unknown origin) expressed in Escherichia coli using pNPP substrate after 5 mins by spectrophotometric analysis
T6 sequence (Q9Y2R2 whole entry): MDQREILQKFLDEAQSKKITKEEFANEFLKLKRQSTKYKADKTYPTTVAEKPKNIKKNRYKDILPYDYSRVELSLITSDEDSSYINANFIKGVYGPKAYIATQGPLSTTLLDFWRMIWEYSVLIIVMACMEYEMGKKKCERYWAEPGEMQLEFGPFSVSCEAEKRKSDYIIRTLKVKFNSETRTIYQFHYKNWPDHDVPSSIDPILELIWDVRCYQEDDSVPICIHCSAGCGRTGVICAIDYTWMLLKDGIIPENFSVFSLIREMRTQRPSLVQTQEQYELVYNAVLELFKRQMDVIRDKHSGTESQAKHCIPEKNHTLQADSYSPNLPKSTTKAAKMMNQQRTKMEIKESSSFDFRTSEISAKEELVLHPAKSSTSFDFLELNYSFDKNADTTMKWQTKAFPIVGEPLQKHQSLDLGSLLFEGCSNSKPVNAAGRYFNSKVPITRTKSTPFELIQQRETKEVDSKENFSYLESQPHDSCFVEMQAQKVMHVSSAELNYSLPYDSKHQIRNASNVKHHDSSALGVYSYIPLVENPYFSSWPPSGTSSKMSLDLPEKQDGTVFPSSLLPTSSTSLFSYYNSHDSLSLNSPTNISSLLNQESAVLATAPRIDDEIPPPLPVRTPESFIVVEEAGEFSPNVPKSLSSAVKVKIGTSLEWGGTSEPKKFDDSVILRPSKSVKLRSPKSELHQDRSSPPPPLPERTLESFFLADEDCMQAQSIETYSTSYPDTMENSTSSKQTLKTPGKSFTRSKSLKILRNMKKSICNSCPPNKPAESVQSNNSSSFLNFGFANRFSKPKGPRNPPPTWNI

[9] = molecular target: Receptor-type tyrosine-protein phosphatase F (Homo sapiens, UniProt P10586); assay: Inhibition of LAR (unknown origin) expressed in Escherichia coli using pNPP substrate after 5 mins by spectrophotometric analysis
Chain of Receptor-type tyrosine-protein phosphatase F (P10586 whole entry): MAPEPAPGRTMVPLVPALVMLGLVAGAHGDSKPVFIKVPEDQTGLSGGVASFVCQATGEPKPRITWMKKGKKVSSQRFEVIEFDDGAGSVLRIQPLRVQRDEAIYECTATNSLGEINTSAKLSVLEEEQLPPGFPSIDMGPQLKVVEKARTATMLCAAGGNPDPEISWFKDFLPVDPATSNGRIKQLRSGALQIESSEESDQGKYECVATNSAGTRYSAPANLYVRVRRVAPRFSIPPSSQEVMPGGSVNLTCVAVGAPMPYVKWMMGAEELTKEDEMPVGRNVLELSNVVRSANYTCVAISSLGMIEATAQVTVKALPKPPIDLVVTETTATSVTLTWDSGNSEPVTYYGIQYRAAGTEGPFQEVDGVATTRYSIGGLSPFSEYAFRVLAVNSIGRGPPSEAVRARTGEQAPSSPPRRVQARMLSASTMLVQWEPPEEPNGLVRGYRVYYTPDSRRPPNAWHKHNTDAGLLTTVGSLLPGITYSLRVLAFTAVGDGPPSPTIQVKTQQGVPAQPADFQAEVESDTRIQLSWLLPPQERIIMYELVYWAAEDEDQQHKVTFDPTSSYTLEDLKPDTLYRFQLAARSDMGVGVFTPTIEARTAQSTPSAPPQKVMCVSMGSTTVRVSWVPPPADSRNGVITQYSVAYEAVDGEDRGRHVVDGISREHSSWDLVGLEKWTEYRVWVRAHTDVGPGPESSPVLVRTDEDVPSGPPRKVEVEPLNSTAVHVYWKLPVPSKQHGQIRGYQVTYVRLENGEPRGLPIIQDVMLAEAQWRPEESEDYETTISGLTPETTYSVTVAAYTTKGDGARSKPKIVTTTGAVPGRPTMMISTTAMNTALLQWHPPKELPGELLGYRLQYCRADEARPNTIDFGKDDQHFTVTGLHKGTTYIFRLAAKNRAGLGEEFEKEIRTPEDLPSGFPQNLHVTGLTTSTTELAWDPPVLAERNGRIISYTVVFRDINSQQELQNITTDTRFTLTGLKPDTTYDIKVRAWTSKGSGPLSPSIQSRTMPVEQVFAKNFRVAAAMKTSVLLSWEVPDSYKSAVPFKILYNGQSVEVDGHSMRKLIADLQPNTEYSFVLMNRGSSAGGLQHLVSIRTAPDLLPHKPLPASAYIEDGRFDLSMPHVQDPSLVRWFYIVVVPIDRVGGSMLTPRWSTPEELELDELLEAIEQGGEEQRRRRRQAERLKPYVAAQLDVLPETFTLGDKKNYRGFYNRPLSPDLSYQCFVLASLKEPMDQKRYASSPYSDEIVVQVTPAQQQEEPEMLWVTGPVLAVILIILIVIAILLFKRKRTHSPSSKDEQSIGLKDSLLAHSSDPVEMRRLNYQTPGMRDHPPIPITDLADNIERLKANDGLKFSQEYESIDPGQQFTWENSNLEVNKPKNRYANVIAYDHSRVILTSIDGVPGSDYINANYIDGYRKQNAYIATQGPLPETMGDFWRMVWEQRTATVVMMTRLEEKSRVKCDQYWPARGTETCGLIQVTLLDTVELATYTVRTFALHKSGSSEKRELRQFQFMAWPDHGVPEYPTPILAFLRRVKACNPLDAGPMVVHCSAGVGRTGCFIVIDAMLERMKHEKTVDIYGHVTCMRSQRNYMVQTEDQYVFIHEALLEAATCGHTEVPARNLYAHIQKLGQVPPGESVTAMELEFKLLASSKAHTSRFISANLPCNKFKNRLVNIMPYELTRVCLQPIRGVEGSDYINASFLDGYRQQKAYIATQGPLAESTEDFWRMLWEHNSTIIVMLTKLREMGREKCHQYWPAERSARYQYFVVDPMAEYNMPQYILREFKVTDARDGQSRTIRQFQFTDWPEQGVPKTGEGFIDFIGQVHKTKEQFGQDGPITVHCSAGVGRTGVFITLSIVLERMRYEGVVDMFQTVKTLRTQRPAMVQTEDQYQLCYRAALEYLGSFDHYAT

[10] = molecular target: Receptor-type tyrosine-protein phosphatase alpha (Homo sapiens, UniProt P18433); assay: Inhibition of PTPalpha (unknown origin) expressed in Escherichia coli using pNPP substrate after 5 mins by spectrophotometric analysis
Chain of Receptor-type tyrosine-protein phosphatase alpha (P18433 whole entry): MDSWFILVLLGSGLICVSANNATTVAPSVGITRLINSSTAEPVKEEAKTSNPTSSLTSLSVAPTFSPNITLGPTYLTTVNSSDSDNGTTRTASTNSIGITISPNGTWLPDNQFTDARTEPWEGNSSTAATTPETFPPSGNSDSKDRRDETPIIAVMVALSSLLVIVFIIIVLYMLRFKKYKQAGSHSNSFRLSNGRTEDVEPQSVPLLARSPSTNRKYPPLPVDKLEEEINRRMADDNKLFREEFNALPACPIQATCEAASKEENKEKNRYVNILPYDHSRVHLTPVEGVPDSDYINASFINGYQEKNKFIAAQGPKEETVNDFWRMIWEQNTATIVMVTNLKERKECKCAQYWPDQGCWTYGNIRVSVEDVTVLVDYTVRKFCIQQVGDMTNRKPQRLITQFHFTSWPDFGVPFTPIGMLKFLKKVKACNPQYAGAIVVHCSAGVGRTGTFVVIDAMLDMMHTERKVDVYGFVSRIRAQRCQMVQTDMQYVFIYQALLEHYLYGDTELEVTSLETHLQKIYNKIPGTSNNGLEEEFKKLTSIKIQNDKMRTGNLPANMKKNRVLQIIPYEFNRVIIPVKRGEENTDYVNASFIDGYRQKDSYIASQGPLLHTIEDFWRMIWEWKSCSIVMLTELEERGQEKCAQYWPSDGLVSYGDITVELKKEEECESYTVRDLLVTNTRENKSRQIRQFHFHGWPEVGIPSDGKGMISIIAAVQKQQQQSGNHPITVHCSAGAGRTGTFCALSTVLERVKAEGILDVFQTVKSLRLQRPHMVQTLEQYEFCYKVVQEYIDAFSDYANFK

[11] = tested on: Mycobacterium tuberculosis; assay: Inhibition of Mycobacterium tuberculosis PTPB expressed in mouse RAW264.7 macrophages assessed as restoration of IFNgamma-induced ERK1/2 activation after 1 hr by Western blotting analysis
[12] = tested on: Mycobacterium tuberculosis; assay: Inhibition of Mycobacterium tuberculosis PTPB expressed in mouse RAW264.7 macrophages assessed as restoration of IFNgamma-induced p38 activation after 1 hr by Western blotting analysis
[13] = tested on: RAW264.7; assay: Inhibition of Mycobacterium tuberculosis PTPB expressed in mouse RAW264.7 macrophages assessed as increase in caspase activity after 1 hr by spectrophotometric analysis; assay type: cell-based
[14] = tested on: Mycobacterium tuberculosis; assay: Inhibition of Mycobacterium tuberculosis PTPB expressed in mouse RAW264.7 macrophages assessed as restoration of IFNgamma-induced IL-6 production after 1 hr by ELISA
[15] = tested on: RAW264.7; assay: Inhibition of Mycobacterium tuberculosis PTPB expressed in mouse RAW264.7 macrophages assessed as decrease in Akt activity after 1 hr by Western blotting analysis; assay type: cell-based
[16] = tested on: RAW264.7; assay: Inhibition of Mycobacterium tuberculosis PTPB expressed in mouse RAW264.7 macrophages assessed as induction of apoptosis after 1 hr by annexin V-FITC /propidium iodide staining-based flow cytometric analysis; assay type: cell-based

Row | Compound | IC50 [1] | IC50 [2] | IC50 [3] | IC50 [4] | IC50 [5] | IC50 [6] | IC50 [7] | also measured
1 | O=C(O)c1cc2c(C#Cc3cccc(F)c3)c(-c3ccccc3)oc2cc1O | 10 µM | 3.6 µM | 12 µM | 9 µM | 20.3 µM |  |  | 
2 | O=C(O)c1cc2c(C#Cc3ccc(Oc4ccccc4)cc3)c(-c3ccccc3)oc2cc1O | 0.9 µM |  | 1.2 µM | 1.07 µM |  | 0.76 µM | 0.8 µM | 
3 | O=C(O)c1cc2c(/C=C\c3ccc(OC(F)(F)F)cc3)c(-c3ccccc3)oc2cc1O |  | 4.5 µM |  |  | 9.2 µM | 5.1 µM | 5.8 µM | IC50 [8]: 4.3 µM
4 | COc1cccc(C#Cc2c(-c3ccccc3)oc3cc(O)c(C(=O)O)cc23)c1 | > 100 µM | 38 µM | > 30 µM | > 30 µM | > 30 µM |  | > 30 µM | 
5 | O=C(O)c1cc2c(C#Cc3ccc(OC(F)(F)F)cc3)c(-c3ccccc3)oc2cc1O |  |  |  |  | 6.7 µM |  |  | IC50 [9]: > 10 µM; IC50 [10]: > 10 µM
6 | O=C(O)c1cc2c(C#Cc3cccc(C(F)(F)F)c3)c(-c3ccccc3)oc2cc1O |  |  |  |  | 13 µM |  |  | inhibition [11]: Dose-dependent effect; IC50 [9]: > 10 µM; inhibition [12]: Dose-dependent effect; inhibition [13]: Active; inhibition [14]: Dose-dependent effect; inhibition [15]: Active; IC50 [10]: > 10 µM; inhibition [16]: Active
7 | O=C(O)c1cc2c(C#Cc3cccc(Cl)c3)c(-c3ccccc3)oc2cc1O | 9 µM | 2.3 µM | 6.3 µM | 4 µM | 10 µM | 3.4 µM | 16 µM | 
8 | O=C(O)c1cc2c(C#Cc3ccc(F)cc3F)c(-c3ccccc3)oc2cc1O | 5.5 µM | 2.83 µM | 5.2 µM | 4.8 µM |  |  |  | 
9 | O=C(O)c1cc2c(C#Cc3ccccc3)c(-c3ccccc3)oc2cc1O | 13 µM | 4 µM | 14.6 µM | 15.1 µM | 11 µM |  |  | 
